Laboratory results taken from paper PMC3688284 (ACS chemical biology, 2011).

Legend:
[1] = test system: rat primary cortical neurons transfected with LRRK2 G2019S; type: cell-based
[2] = test system: rat primary cortical neurons transfected with LRRK2 R1441C; type: cell-based; conditions: at higher concentrations
Pharmacokinetics studies = conditions: in vivo
human cortical neurons = assay: AlamarBlue cytotoxicity assay in primary human cortical neurons; type: cell-based; conditions: for Concentration at which overt cytotoxicity was seen: human cortical neurons
G2019S LRRK2 = G2019S LRRK2 (Homo sapiens, UniProt Q5S007, G2019S); assay: TR-FRET-based kinase activity assay, G2019S LRRK2; type: biochemical; conditions: read-out: IC50, G2019S LRRK2 activity, ATP 100 μM
[3] = test system: LRRK2 G2019S-transfected human cortical neurons; assay: Neurite morphology assay in primary human cortical neurons; conditions: for EC50: read-out: EC50, attenuation of G2019S LRRK2-induced human neuronal injury
[4] = target: recombinant human wild type LRRK2 (Homo sapiens, UniProt Q5S007); assay: TR-FRET-based kinase activity assay, wild type LRRK2; type: biochemical; conditions: read-out: IC50, human wild type LRRK2 activity, ATP 100 μM
[5] = target: mouse LRRK2 (mouse kidney lysate) (Mus musculus, UniProt Q5S006); assay: Competition-binding assay with la-S7 matrix; conditions: concentrations as high as 100 μM tested; 5 mg/mL protein
[6] = target: LRRK2 (human K562 extracts) (Homo sapiens, UniProt Q5S007); assay: la-S7 binding assay in human K562 extracts; conditions: concentrations as high as 100 μM tested; 5 mg/mL protein
Sequence of LRRK2 (human K562 extracts) (Q5S007 whole entry): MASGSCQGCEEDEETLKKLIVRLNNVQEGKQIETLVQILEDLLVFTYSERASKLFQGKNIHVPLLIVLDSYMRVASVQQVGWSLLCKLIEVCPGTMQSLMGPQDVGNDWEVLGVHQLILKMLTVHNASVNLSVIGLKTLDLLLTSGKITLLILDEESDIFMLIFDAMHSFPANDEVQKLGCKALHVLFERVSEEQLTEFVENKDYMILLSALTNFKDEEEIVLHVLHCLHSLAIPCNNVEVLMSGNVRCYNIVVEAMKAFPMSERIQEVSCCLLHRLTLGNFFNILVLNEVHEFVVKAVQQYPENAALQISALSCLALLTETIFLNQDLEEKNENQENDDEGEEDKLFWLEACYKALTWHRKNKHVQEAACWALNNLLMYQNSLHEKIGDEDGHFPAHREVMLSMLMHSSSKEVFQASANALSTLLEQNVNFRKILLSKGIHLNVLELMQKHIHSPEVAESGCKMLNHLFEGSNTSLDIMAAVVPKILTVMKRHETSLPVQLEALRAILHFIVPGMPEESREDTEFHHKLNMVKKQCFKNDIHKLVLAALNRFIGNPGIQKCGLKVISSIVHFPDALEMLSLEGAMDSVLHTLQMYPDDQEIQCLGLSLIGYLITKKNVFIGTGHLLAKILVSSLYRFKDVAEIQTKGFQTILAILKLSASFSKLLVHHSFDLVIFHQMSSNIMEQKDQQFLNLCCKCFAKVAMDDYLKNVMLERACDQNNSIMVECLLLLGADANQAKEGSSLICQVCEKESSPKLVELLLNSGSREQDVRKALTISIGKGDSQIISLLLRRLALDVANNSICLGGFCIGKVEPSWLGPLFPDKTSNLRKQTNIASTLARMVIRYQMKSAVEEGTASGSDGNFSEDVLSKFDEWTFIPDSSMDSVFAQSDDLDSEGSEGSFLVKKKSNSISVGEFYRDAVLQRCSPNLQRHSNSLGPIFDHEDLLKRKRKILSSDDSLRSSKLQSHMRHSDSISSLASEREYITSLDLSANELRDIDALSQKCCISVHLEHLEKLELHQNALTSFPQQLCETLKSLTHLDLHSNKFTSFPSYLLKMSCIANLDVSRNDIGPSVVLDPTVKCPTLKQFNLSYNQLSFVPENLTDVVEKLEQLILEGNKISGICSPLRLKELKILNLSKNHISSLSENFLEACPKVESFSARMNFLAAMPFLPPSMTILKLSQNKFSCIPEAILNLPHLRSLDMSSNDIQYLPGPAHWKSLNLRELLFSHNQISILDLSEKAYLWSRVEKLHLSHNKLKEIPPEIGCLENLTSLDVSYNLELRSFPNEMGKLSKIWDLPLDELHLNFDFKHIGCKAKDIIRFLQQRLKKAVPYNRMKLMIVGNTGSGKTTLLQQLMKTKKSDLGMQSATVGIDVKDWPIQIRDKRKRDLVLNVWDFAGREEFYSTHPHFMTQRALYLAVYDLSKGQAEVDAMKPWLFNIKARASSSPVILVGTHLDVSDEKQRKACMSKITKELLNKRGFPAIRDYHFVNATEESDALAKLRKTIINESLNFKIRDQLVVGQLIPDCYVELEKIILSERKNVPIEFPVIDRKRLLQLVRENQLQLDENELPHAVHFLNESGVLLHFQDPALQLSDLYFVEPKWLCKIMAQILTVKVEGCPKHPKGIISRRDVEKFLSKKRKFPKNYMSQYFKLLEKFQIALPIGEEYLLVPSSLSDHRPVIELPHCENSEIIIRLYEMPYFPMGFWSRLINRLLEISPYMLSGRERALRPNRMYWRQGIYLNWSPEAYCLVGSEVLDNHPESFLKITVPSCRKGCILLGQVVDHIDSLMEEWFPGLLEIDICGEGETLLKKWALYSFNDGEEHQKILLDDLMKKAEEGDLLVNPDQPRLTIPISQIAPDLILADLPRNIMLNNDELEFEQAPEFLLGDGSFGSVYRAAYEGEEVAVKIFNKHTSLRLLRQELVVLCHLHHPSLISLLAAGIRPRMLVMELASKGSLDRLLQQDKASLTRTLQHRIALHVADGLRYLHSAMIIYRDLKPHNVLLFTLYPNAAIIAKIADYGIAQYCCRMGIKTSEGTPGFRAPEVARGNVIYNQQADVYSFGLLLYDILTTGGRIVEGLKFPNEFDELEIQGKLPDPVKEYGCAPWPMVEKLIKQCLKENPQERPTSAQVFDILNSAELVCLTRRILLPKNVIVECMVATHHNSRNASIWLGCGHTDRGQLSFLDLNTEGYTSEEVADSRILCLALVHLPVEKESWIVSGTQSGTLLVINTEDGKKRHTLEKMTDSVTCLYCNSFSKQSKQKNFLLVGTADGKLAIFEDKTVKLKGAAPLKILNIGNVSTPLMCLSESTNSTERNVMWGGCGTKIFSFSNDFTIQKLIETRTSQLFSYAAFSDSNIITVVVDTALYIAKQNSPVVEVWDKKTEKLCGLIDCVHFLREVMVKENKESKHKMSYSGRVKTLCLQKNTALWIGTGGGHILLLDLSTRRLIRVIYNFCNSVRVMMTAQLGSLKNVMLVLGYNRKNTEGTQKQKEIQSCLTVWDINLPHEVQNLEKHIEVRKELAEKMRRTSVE

Sequence of G2019S LRRK2 (Q5S007 whole entry G2019S): as the sequence (Q5S007 whole entry) above, with G2019S counted along it
Sequence of recombinant human wild type LRRK2 (Q5S007 whole entry): as the sequence (Q5S007 whole entry) above
Sequence of mouse LRRK2 (mouse kidney lysate) (Q5S006 1879-2146 limits assumed): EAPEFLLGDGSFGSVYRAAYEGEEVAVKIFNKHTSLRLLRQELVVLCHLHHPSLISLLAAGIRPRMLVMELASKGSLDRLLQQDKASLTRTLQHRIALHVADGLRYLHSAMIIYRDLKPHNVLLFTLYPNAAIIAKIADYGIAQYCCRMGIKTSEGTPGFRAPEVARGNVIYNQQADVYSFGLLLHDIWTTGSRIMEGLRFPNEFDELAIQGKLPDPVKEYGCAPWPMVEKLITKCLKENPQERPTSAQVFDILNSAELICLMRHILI

IC50 in la-S7 binding assay, mouse kidney extracts [5] | IC50 in la-S7 binding assay, human K562 extracts [6] | Structure (SMILES) | Block of G2019S LRRK2-induced toxicity ([1]; at higher concentrations) | EC50 ([1]; read-out: EC50, attenuation of G2019S LRRK2-induced neuronal injury and death, primary rodent cortical neurons) [nM] | Block of R1441C-induced toxicity [2] | Brain penetration (Pharmacokinetics studies) | Clearance (Pharmacokinetics studies) [mL/min/kg] | Volume of distribution (Pharmacokinetics studies) [L/kg] | Concentration at which overt cytotoxicity was seen (human cortical neurons) [nM] | Concentrations at which no cytotoxicity was caused (human cortical neurons; seven-day treatment in culture) | IC50 (G2019S LRRK2) [nM] | Concentration fully reversing G2019S LRRK2-induced injury to wild-type levels [3] [nM] | EC50 [3] [nM] | IC50 [4] [nM]
 |  | COc1cc(N2CCOCC2)ccc1Nc1ncc(F)c(Nc2ccccc2NS(C)(=O)=O)n1 [CZC-25146] | completely blocked | ~100 | completely blocked | ~ 4% | 38.3 | 5.4 | 5000 | below 5 μM | 6.87 | 8 | ~4 | 4.76
 |  | COc1cc(N2CCOCC2)ccc1Nc1ncc(Cl)c(Nc2ccccc2NS(C)(=O)=O)n1 [CZC-54252] |  |  |  | ~ 4% |  |  | ≥ 1000 |  | 1.85 | 1.6 | ~1 | 1.28
no valid IC50s | no valid IC50s | O=C1Nc2ccc(I)cc2/C1=C/c1cc(Br)c(O)c(Br)c1 [GW-5074] |  |  |  |  |  |  |  |  |  |  |  | 
